Source: patent US11517600B2, “Use of Crassocephalum rabens extract in the treatment of breast cancer” (ACADEMIA SINICA, priority 2018, dated 2022)

What was measured:
[1] = Body weight of tumor-implanted mice; type: in vivo
Protocol: (§1) The therapeutic effects of dLGG or dLGG-enriched CR-API fractions from C. rabens against TNBC were evaluated using an orthotopic tumor model. Briefly, mice were subcutaneously injected with 4T1 (murine TNBC) cells (5×10^6 cells per 100 μl PBS and 50 μl matrigel per mouse) into the fourth mammary fat pad under isoflurane anaesthesia. Tumor growth and body weight are monitored daily. After tumors grow to an approximate size of 150 mm^3 at day 7 post implantation, test mice are randomized into different groups (8 mice per group) and subjected to a three-week compound treatment scheme (FIG. 2). […] Dosage and frequency of doxorubicin treatment is based on maximum tolerable dose determined from in house toxicity experiments within the concentration range commonly used in animal studies (Bao L, Haque A, Jackson K, et al. (2011) Increased Expression of P-Glycoprotein Is Associated with Doxorubicin Chemoresistance in the Metastatic 4T1 Breast Cancer Model. The American Journal of Pathology. 2011; 178 (2):838-852). Effects of drug/compound/extracts are evaluated thrice a week by monitoring tumor size and body weight. Euthanasia by cervical dislocation are performed at day 30 post tumor implantation. […]

[2] = tested on: 4T1 (murine TNBC) orthotopic tumor; assay: 4T1 orthotopic breast cancer model: tumor growth and survival; type: in vivo, mice; settings: for tumor volume compared with the tumor control: Dox 5 mg/kg every 3 days i.v. (P<0.0001), Dox5+dLGG5 (P=0.0015), dLGG 25 mg/kg daily o.p. (P=0.0015); for reduced tumor volumes compared with the tumor control group: endpoint day 30
Protocol: Female BALB/cByJNar1 mice (4-week-old) were supplied from National Laboratory Animal Center, Taipei, Taiwan and given a standard laboratory diet and distilled water ad libitum and kept on a 12-h light/dark cycle at 22±2° C. This study was conducted according to the institutional guidelines and approved by the Institutional Animal Care and Utilization Committee (IACUC) of Academia Sinica, Taiwan.
(§2) The therapeutic effects of dLGG or dLGG-enriched CR-API fractions from C. rabens against TNBC were evaluated using an orthotopic tumor model. Briefly, mice were subcutaneously injected with 4T1 (murine TNBC) cells (5×10^6 cells per 100 μl PBS and 50 μl matrigel per mouse) into the fourth mammary fat pad under isoflurane anaesthesia. Tumor growth and body weight are monitored daily. After tumors grow to an approximate size of 150 mm^3 at day 7 post implantation, test mice are randomized into different groups (8 mice per group) and subjected to a three-week compound treatment scheme (FIG. 2). […] Dosage and frequency of doxorubicin treatment is based on maximum tolerable dose determined from in house toxicity experiments within the concentration range commonly used in animal studies (Bao L, Haque A, Jackson K, et al. (2011) Increased Expression of P-Glycoprotein Is Associated with Doxorubicin Chemoresistance in the Metastatic 4T1 Breast Cancer Model. The American Journal of Pathology. 2011; 178 (2):838-852). Effects of drug/compound/extracts are evaluated thrice a week by monitoring tumor size and body weight. Euthanasia by cervical dislocation are performed at day 30 post tumor implantation. Tumors, organ tissues (lungs, liver, kidneys, spleen) and serum were immediately collected and allocated either for western blotting (immediately flash frozen using N2 and stored at −80° C.) or for paraffin fixation (immediately soaked in 10% formalin solution for at least one week). Paraffin-embedded tissues were stored at room temperature.

[3] = tested on: Cav-1; assay: Western blot of tumor tissues, Cav-1; type: in vivo, mice; settings: high dose dLGG (25 mg/kg), Dox5, Dox5+dLGG5
Protocol: as §1

[4] = tested on: TNBC metastatic tumor nodules in liver; assay: Distal metastasis to the liver (H&E, Ki-67 IHC); type: in vivo, mice; settings: day 30; all dose groups (dLGG5, dLGG25, CR-API200, CR-API400, Dox5, Dox5+dLGG5) vs tumor control
Protocol: as §1

[5] = tested on: FAK; assay: Western blot of tumor tissues, FAK phosphorylation; type: in vivo, mice; settings: high dose dLGG (25 mg/kg), high dose CR-API (400 mg/kg), Dox5, Dox5+dLGG5
Protocol: as §1

[6] = tested on: Rac1; assay: Western blot of tumor tissues, Rac1; type: in vivo, mice; settings: high dose dLGG (25 mg/kg), Dox5, Dox5+dLGG5
Protocol: as §1

[7] = tested on: COX-2; assay: IHC of COX-2 in liver and lung tissues; type: in vivo, mice; settings: day 30, dLGG 5 and 25, CR-API 200 and 400 mg/kg daily o.p., Dox 5 mg/kg every 3 days i.v., Dox5+dLGG5
Protocol: as §1

[8] = tested on: cleaved caspase-3; assay: IHC of cleaved caspase-3 in tumor tissues; type: in vivo, mice; settings: for caspase-3 expression compared with the low dose treatments and the Dox5+dLGG5 combination: day 30, Dox 5 mg/kg i.v., CR-API 400 mg/kg, dLGG 25 mg/kg daily o.p.; for cleaved caspase-3 expression in tumor tissues compared with the vehicle control: day 30, all treatment groups
Protocol: as §2
(§3) Tumor and organ tissues were fixed in 10% buffered formalin and embedded in paraffin. Paraffin-embedded samples were sectioned (6 μm) and underwent hemotoxylin and eosin (H&E) or immunohistochemical (IHC) staining. Paraffin-embedded tissue sections were heat immobilized and deparaffinized using xylene and rehydrated in a graded series of ethanol with a final wash in distilled water. For antigen retrieval, citrate retrieval buffer and Decloaking Chamber (Biocare Medical) were used. Images were captured using AxioVision software (Carl Zeiss MicroImaging, Inc.).

[9] = tested on: Src (p-Src^419); assay: Western blot of tumor tissues, Src activation; type: in vivo, mice; settings: all dLGG and CR-API treatments, Dox5+dLGG5, Dox5
Protocol: as §1

[10] = tested on: TNBC metastatic tumor nodules in lung; assay: Distal metastasis to the lungs (H&E, Ki-67 IHC); type: in vivo, mice; settings: for tumor metastasis nodules in the lung tissues: day 30, all dose groups (dLGG5, dLGG25, CR-API200, CR-API400, Dox5, Dox5+dLGG5) vs tumor control
Protocol: as §2, §3

[11] = tested on: CYP2C19; assay: Western blot of tumor tissues, CYP2C19; type: in vivo, mice; settings: all dLGG and CR-API groups, Dox5+dLGG5 compared with Dox5 alone
Protocol: as §1

[12] = tested on: SKBR3 (Her2+ breast cancer cells); assay: MTT cell viability assay, SKBR3; type: cell-based; settings: Homo sapiens, SK-BR-3; SKBR3, 24 hours, tested concentration range 5-100 μM
Protocol: (§4) Immortalized normal human mammary epithelial cells (MCF10A) and breast cancer cell lines including HER2+ (SKBR3), ER+ (MCF7), triple negative (MDA-MB-231), and murine TNBC cell line 4T1 were obtained from the ATCC (USA). Cells were expanded and frozen at low passage after the receipt of the original stocks. Cells were thawed and used within 15 passages.
(§5) Cells (3×10^3 cells/well) were seeded in 96-well plates overnight and treated for 24 hours. Cell growth was determined by MTT-based colorimetric assay. Viability of the cells treated with vehicle-only (0.5% DMSO) was defined as 100% viability. Cell survival after compound treatment was calculated using the following formula: viable cell number (%)=[OD570 (treated cells)/OD570 (vehicle control)]×100.

[13] = target: Ki67; assay: IHC of Ki67 in tumor tissues; type: in vivo, mice; settings: day 30, dLGG and CR-API regardless of dose, Dox5, Dox5+dLGG5, vs tumor control
Protocol: as §1

[14] = tested on: COX-2; assay: Western blot of tumor tissues, COX-2; type: in vivo, mice; settings: all dLGG and CR-API groups, Dox5+dLGG5 compared with Dox5 alone
Protocol: as §1

[15] = tested on: MCF7 (ER+ breast cancer cells); assay: MTT cell viability assay, MCF7; type: cell-based; settings: Homo sapiens; MCF7, 24 hours, tested concentration range 5-100 μM
Protocol: as §4, §5

[16] = tested on: MDA-MB-231 (ER−, PR− and Her2− TNBC cells); assay: MTT cell viability assay, MDA-MB-231; type: cell-based; settings: human derived TNBC cells, 24 hours
Protocol: as §4, §5

[17] = tested on: 4T1 TNBC cells; assay: MTT cell viability assay, 4T1; type: cell-based; settings: Mus musculus, murine derived TNBC cells 4T1, 24 hours
Protocol: as §4, §5

[18] = tested on: MCF10A (normal mammary epithelial cells); assay: MTT cell viability assay, MCF10A; type: cell-based, human; settings: 24 h treatment
Protocol: as §4, §5

[19] = dLGG 25 mg/kg, CR-API 400 mg/kg daily o.p., Dox 5 mg/kg every 3 days i.v., Dox5+dLGG5

SMILES	tumor volume compared with the tumor control ([2]; day 30)	Cav-1 expression level in tumor tissues [3]	tumor metastasis nodules in the liver tissues [4]	phosphorylation of FAK in tumor tissues [5]	Rac1 expression level in tumor tissues [6]	COX-2 expression in liver and lung tissues [7]	caspase-3 expression compared with the low dose treatments and the Dox5+dLGG5 combination [8]	cleaved caspase-3 expression in tumor tissues compared with the vehicle control [8]	activation of Src (p-Src^419) in tumor tissues compared with the tumor control [9]	metastatic tumor nodules in lung (H&E) [10, 19]	tumor metastasis nodules in the lung tissues [10]	also measured
COc1cccc2c1C(=O)c1c(O)c3c(c(O)c1C2=O)C[C@@](O)(C(=O)CO)C[C@@H]3O[C@H]1C[C@H](N)[C@H](O)[C@H](C)O1 [Dox, doxorubicin, reference compound]	significant tumor volume reduction	decreased significantly	less compared with the tumor control group	significantly inhibited	decreased significantly	further induce COX-2 expression	higher caspase-3 expression	increased expression of cleaved caspase-3	much less or no effect at all	not detectable	less compared with the tumor control group	loss of weight ([1]; Dox5: 5 mg/kg every 3 days i.v., day 30): 10 % of starting body weights; reduction in tumor weight ([2]; Dox5: 5 mg/kg every 3 days i.v., day 30, P<0.05): 60%
CC/C=C\C/C=C\C/C=C\CCCCCCCC(=O)OC[C@H](CO[C@@H]1O[C@H](CO)[C@H](O)[C@H](O)[C@H]1O)OC(=O)CCCCCCC/C=C\C/C=C\C/C=C\CC [dLGG, 1,2-di-O-α-linolenoyl-3-O-β-galactopyranosyl-sn-glycerol]	significant tumor volume reduction	decreased significantly	less compared with the tumor control group	significantly inhibited	decreased significantly	decreased in a dose-dependent manner	higher caspase-3 expression	increased expression of cleaved caspase-3	significantly inhibited	not detectable	less compared with the tumor control group	CYP2C19 expression level in tumor tissues [11]: dose dependent effect on attenuating the expression levels; IC50 [12]: > 100 µM; Ki-67 overexpression in tumor tissues [13]: attenuated; COX-2 expression level in tumor tissues [14]: dose dependent effect on attenuating the expression levels; weight loss ([1]; dLGG 5 and 25 mg/kg, CR-API 200 and 400 mg/kg daily o.p., given alone): No significant weight loss; survival ([2]; dLGG5: 5 mg/kg daily o.p., day 30): 100%; reduced tumor volumes compared with the tumor control group ([2]; dLGG5: 5 mg/kg daily o.p., P<0.05): 18%; survival ([2]; dLGG25: 25 mg/kg daily o.p., day 30): 100%; reduced tumor volumes compared with the tumor control group ([2]; dLGG25: 25 mg/kg daily o.p., P<0.05): 47%; IC50 [15]: > 100 µM; IC50 [16]: 55 µM; IC50 [17]: 55 µM; metastatic tumor nodules in lung (H&E) ([10]; low dose: dLGG 5 mg/kg, CR-API 200 mg/kg daily o.p.): visible; cell survival [18]: no significant change in cell survival
